Results reported in patent US20030194750A1, “Methods for treatment of diseases where GSK 3-beta is desired, and methods to identify compounds usefule for that” (priority 2002, published 2003).
Counter-ions that a name gives are not always drawn.

How the values were obtained:
PKG [1] = experiment: PKG activity assay on lysates of drug-treated SW480 colon cancer cells (32P phosphorylation of PDE5/GST substrate); type: cell-based, human; settings: SW480 cells treated 48 hrs; exisulind 200, 400, 600 μM, E4021 0.1, 1, 10 μM; assay with and without added cGMP
Description: A compound that inhibits all these types of PDE is desirable, accordingly. Below, we provide examples of such PDE-inhibiting compounds.
SW 480 is known to contain the APC mutation. About 5 million SW480 cells in RPMI 5% serum are added to each of 8 dishes:
2-10 cm dishes - - - 30 μL DMSO vehicle control (without drug),
3-10 cm dishes - - - 200 μM, 400 μM, 600 μM exisulind in DMSO, and
The dishes are incubated for 48 hrs at 37° C. in 5% CO2 incubator.
The liquid media are aspirated from the dishes (the cells will attach themselves to the dishes). The attached cells are washed in each dish with cold PBS, and 200 μL cell lysis buffer (i.e., 50 mM Tris-HCl, 1% NP-40, 150 mM NaCl, 1 mM EDTA, 1 mM Na3VO4, 1 mM NaF, 500 μM IBMX with proteinase inhibitors) is added to each dish. Immediately after the cell lysis buffer is added, the lysed cells are collected by scraping the cells off each dish. The cell lysate from each dish is transferred to a microfuge tube, and the microfuge tubes are incubated at 4° C. for 15 minutes while gently agitating the microfuge tubes to allow the cells to lyse completely. […]
For each control or drug cell lysate sample to be evaluated, the reaction is started by adding phosphorylation buffer containing 10 μCi ^32P-γ-ATP solution (200 μM ATP, 4.5 mM MgCl; 5 mM KH2PO4; 5 mM K2HPO4;) to each mixture. […]

PKG1β = experiment: Western blot of PKG1β in SW480 cells; type: cell-based, human; settings: various concentrations, 48 hours
Description: (§1) 50 μg protein/lane were analyzed by Western blot analysis using specific anti-PKG1β and anti-GSK3β-phospho-ser9 antibodies.

PKG [2] = experiment: Western blot of PKG protein in SW480 cells; type: cell-based, human; settings: 48 hours, vs vehicle 0.1% DMSO
Description: (§2) SW480 cells treated with exisulind as described previously are harvested from the microfuge tubes by rinsing once with ice-cold PBS. The cells are lysed by modified RIPA buffer for 15 minutes with agitation. The cell lysate is spun down in a cold room. The supernatants are transferred to fresh microcentrifuge tubes immediately after spinning. BioRad DC Protein Assay (Temecula, Calif.) is performed to determine the protein concentrations in samples. The samples are normalized for protein concentration, as described above.
(§3) 50 μg of each sample is loaded to 10% SDS gel. SDS-PAGE is performed, and the proteins then are transferred to a nitrocellulose membrane. The blotted nitrocellulose membrane are blocked in freshly prepared TBST containing 5% nonfat dry milk for one hour at room temperature with constant agitation.
A goat-anti-PKG primary antibody is diluted to the recommended concentration/dilution in fresh TBST/5% nonfat dry milk. The nitrocellulose membrane is placed in the primary antibody solution and incubated one hour at room temperature with agitation. The nitrocellulose membrane is washed three times for ten minutes each with TBST. The nitrocellulose membrane is incubated in a solution containing a secondary POD conjugated rabbit anti-goat antibody for 1 hour at room temperature with agitation. The nitrocellulose membrane is washed three times for ten minutes each time with TBST. […]

GSK3β = experiment: Western blot of GSK3β-phospho-ser9 in SW480 cells; type: cell-based, human; settings: various concentrations, 48 hours, vs 0 concentration
Description: as §1

PKG [3] = experiment: PKG activity assay on lysates of drug-treated HCT116 colon cancer cells; type: cell-based, human; settings: HCT116 cells (β-catenin mutation, no APC mutation), same procedure as SW480
Excerpt: HCT116 is known to contain the β-catenin mutation, but is known not to contain the APC mutation.
The same procedure is used to grow the HCT116 cells as is used in the SW480 procedure described above. In this experiment, only exisulind and controls were used.

β-catenin = experiment: Western blot of β-catenin in SW480 cells; type: cell-based, human
Description: as §2, §3
SW480 cells were treated with exisulind or vehicle (0.1% DMSO) for 48 hours. 50 μg supernatant of each cell lysates were loaded to 10% SDS-gel and blotted to nitrocellulose membrane, and the membrane was probed with rabbit-anti-β-catenin and rabbit anti-PKG antibodies.
This observation was made by culturing SW480 cells with either 200, 400 or600 μM exisulind or vehicle (0.1% DMSO). The cells are harvested 48 hours post treatment and processed for immunoblotting. Immuno-reactive protein can be detected by Western blot. […]

[4] = molecular target: T1, GST-cGB-PDE5 fusion protein (Homo sapiens, UniProt O76074); experiment: cGMP binding assay with GST-cGB-PDE5 fusion protein; settings: 3H-cGMP 2 μM, 22° C., 1 hour
T1 construct: made in house; host or cells: E. coli BL21 (DE3)
Description: 5′-3′, Inc. kits for total RNA followed by oligo (dT) column purification of mRNA are used with HT-29 cells. […] It is then cloned into pGEX-5X-3 glutathione-S-transferase (GST) fusion vector (Pharmacia Biotech) with tac promoter, and EcoRI and XhoI cut sites. The fusion vector is then transfected into E. Coli BL21 (DE3) bacteria (Invitrogen). The transfected BL21 bacteria is grown to log phase, and then IPTG is added as an inducer. The induction is carried at 20° C. for 24 hrs. The bacteria are harvested and lysed. The soluble cell lysate is incubated with GSH conjugated Sepharose 4B (GSH-Sepharose 4B). The GST-cGB-PDE5 fusion protein can bind to the GSH-Sepharose beads, and the other proteins are washed off from beads with excessive cold PBS.
Then, the mixture is transferred to Brandel MB-24 cell harvester with GF/B as the filter membrane followed by 2 washes with 10 mL of cold 5 mM potassium buffer( pH 6.8). The membranes are then cut out and transferred to scintillation vials followed by the addition of 1 mL of H2O and 6 mL of Ready Safe™ liquid scintillation cocktail to each vial. The vials are counted on a Beckman LS 6500 scintillation counter.
The quenching by filter membrane or other debris are also calibrated.

rats [5] = experiment: 28-day study in rats; type: in vivo, rat
Description: A 28-day study in rats was also carried out at 0, 50, 500 and 2000 mg/kg/day.

dogs [6] = experiment: 91-day oral study in dogs; type: in vivo, dog
human patients = experiment: Single, escalating dose human clinical safety study; type: in vivo; settings: oral, 50 mg BID, 100 mg BID, 200 mg BID and 400 mg BID
PDE1 = experiment: PDE inhibition, similar protocols; type: biochemical
PDE4 = experiment: PDE inhibition, similar protocols; type: biochemical
dogs [7] = experiment: Acute and seven-dose toxicity in dogs; settings: dog, in vivo
Description: Therefore, these dogs were subsequently administered seven consecutive doses of 1000 mg/kg/day.

PDE 5 = PDE 5 (Homo sapiens, UniProt O76074); experiment: Competitive (with cGMP) binding to PDE5
rats [8] = experiment: Acute toxicity study in rats; settings: rat, in vivo
rats [9] = experiment: Long-term (91-day) safety assessment study in rats; type: in vivo, rat
Excerpt: These changes were not associated with any gross clinical abnormality.

rats [10] = experiment: Seven-day dose-range finding study in rats; type: in vivo, rat; settings: 7 days
[11] = 28 days, 50, 500 and 2000 mg/kg/day
[12] = 91 days, highest dose group (300 mg/kg/day)

CC1=C(CC(=O)O)c2cc(F)ccc2/C1=C\c1ccc(S(C)(=O)=O)cc1 [exisulind]
PKG activity relative to control (PKG [1]): causes PKG activity to increase in a dose-dependent manner
PKG1 induction (PKG1β): PKG1 induction in a dose-dependent manner
PKG protein level by Western blot (PKG [2]): increase of PKG
GSK3β inactivation by Ser9 phosphorylation (GSK3β): inactivated in vivo by phosphorylation of its Ser9
PKG activation relative to controls (PKG [3]): PKG activation occurred
reduction of β-catenin expression compared to control (β-catenin; SW480 cells, 200, 400 or 600 μM, harvested 48 hours post treatment): 50%
β-catenin level by Western blot (β-catenin; SW480 cells, 48 hours, vs vehicle 0.1% DMSO): drop of β-catenin
competition with cGMP for the cGMP binding sites [4]: None of the PDE5 inhibitors showed any competition with cGMP in binding

CC1=C(CC(=O)NCc2ccccc2)c2cc(F)ccc2/C1=C\c1ccncc1 [Example 38, (Z)-5-Fluoro-2-Methyl-(4-Pyridylidene)-3-(N-Benzyl) Indenylacetamide Hydrochloride]
macroscopic tissue changes at necropsy (rats [5]; 28 days): No macroscopic tissue changes
histopathological evaluation of tissues (rats [5]; 28 days, 500 mg/kg/day): one female at 500 mg/kg/day had increased mitotic figures in the thyroid gland
liver weights (rats [5]; 28 days, 2000 mg/kg/day): statistically significant increase in liver weights
thyroid weights (rats [5]; 28 days, 2000 mg/kg/day): statistically significant increases in thyroid weights
body weight changes, ophthalmoscopic examinations, hematological and blood chemistry values, urinalysis (rats [5]; [11]): unremarkable
clinical observations (rats [5]; [11]): no abnormal clinical observations
liver and thyroid weight increases at the lower doses (rats [5]; 28 days, 50 and 500 mg/kg/day): not statistically significant
histopathological evaluation of tissues (rats [5]; 28 days, generally limited to a small number of animals at 2000 mg/kg/day): traces of follicular cell hypertrophy, increased numbers of mitotic figures (suggestive of possible cell proliferation) in the thyroid gland and mild centrilobular hypertrophy in the liver
PKG1 induction (PKG1β): PKG1 induction in a dose-dependent manner
route of elimination (suggested by feces colour) (dogs [6]; 91 days oral): most of Compound 38 was being eliminated via the feces
feces observation (dogs [6]; 91 days, 150 and 300 mg/kg/day): Orange discoloration of the feces
liver microscopy (dogs [6]; 91 days, highest dose group): no microscopic alterations
body weights (dogs [6]; [12]): Slightly lowered body weights
liver weights (dogs [6]; [12]): increased liver weights
toxicological effects overall (dogs [6]; oral, 91 consecutive days, 50, 150 and 300 mg/kg/day): no toxicological effects
side effects (human patients): no significant side effects at any dose
IC50 (PDE1): 3000 nM
GSK3β inactivation by Ser9 phosphorylation (GSK3β): inactivated in vivo by phosphorylation of its Ser9
competition with cGMP for the cGMP binding sites [4]: does not bind to the cGMP-binding site of PDE5
IC50 (PDE4): 6 µM
signs of toxicity (dogs [7]; 1000 mg/kg): no signs of toxicity
signs of drug-related effects (dogs [7]; 1000 mg/kg/day): At no time in either dosing phase were any obvious signs of drug-related effects observed
competitive binding with cGMP to PDE5 (PDE 5): does competitively (with cGMP) bind to PDE 5
body weight gain (rats [8]; ip, 1000 mg/kg): reduced body weight gain
necropsy findings (rats [8]; ip, 1000 mg/kg): mesenteric adhesions seen in some animals
body weight gains (rats [8]; po, 2000 mg/kg): slightly reduced
clinical biochemistry and hematology (rats [9]; 91 days): no changes in clinical biochemistry and hematology were evident
thyroid microscopy (rats [9]; 91 days, 500 mg/kg/day): follicular cell hypertrophy
kidney microscopy (rats [9]; 91 days, 200 and 500 mg/kg/day): increase in accumulation of hyalin droplets in the kidneys
liver microscopy (rats [9]; 91 days, 200 and 500 mg/kg/day): slight hepatocellular hypertrophy
liver and thyroid/parathyroid weights (rats [9]; 91 days, males and females at 200 and 500 mg/kg/day): dose-related trend to increased liver and thyroid/parathyroid weights
toxicological effects overall (rats [9]; oral, 91 consecutive days, 50, 200 and 500 mg/kg/day): did not produce any major toxicological effects
signs of toxicity (rats [10]; 50 mg/kg/day): no observable signs of toxicity
treatment-related effects (rats [10]; 500 mg/kg/day): an increase in absolute and relative liver weights in female rats
treatment-related effects (rats [10]; 2000 mg/kg/day): labored breathing and/or abnormal respiratory sounds, decreased weights gains and food consumption in male rats, and increased liver weights in female rats
hematology, blood chemistry, microscopic pathology (rats [10]; any dose level (50, 500, 2000 mg/kg/day)): No hematological or blood chemistry changes nor any microscopic pathology changes
